Test results published in ChEMBL document CHEMBL4350967, “The Trifluoromethyl Group as a Bioisosteric Replacement of the Aliphatic Nitro Group in CB1 Receptor Positive Allosteric Modulators” (J Med Chem, 2019).
pEC50: −log10 of the molar value. Active and inactive are the calls of the source. No cut-off for these calls is given here.

How the values were obtained:
Cannabinoid receptor 1 [1] = biological target: T1, Cannabinoid receptor 1 (Homo sapiens, UniProt P21554); test: Positive allosteric modulation of human CB1 receptor expressed in CHOK1 cells assessed as increase in CP55940-induced beta-arrestin recruitment preincubated for 30 mins followed by CP55940 addition and measured after 90 to 180 mins by PathHunter assay; type: cell-based
Cannabinoid receptor 1 [2] = biological target: T1, Cannabinoid receptor 1; test: Agonist activity at human CB1 receptor expressed in CHOK1 cells assessed as induction of beta-arrestin recruitment measured after 30 mins by PathHunter assay; type: cell-based
[3] = Half life in human liver microsomes at 3 uM in presence of NADPH by LC-MS/MS analysis; type: ADME, Microsome
[4] = Half life in rat liver microsomes at 3 uM in presence of NADPH by LC-MS/MS analysis; type: ADME, Microsome
[5] = Half life in mouse liver microsomes at 3 uM in presence of NADPH by LC-MS/MS analysis; type: ADME, Microsome
Cannabinoid receptor 1 [6] = biological target: T1, Cannabinoid receptor 1; test: Agonist activity at human Gi/Go-coupled CB1 receptor expressed in CHOK1 cells assessed as inhibition of forskolin-stimulated cAMP production measured after 30 mins by Hit-hunter assay
Cannabinoid receptor 1 [7] = biological target: T1, Cannabinoid receptor 1; test: Agonist activity at human Gi/Go-coupled CB1 receptor expressed in CHOK1 cells assessed as inhibition of forskolin-stimulated cAMP production measured after 30 mins by Hit-hunter assay relative to CP55940; type: cell-based; settings: 0.5 h
Cannabinoid receptor 1 [8] = biological target: T1, Cannabinoid receptor 1
Cannabinoid receptor 1 [9] = biological target: T1, Cannabinoid receptor 1; test: Positive allosteric modulation of human CB1 receptor expressed in CHOK1 cells assessed as increase in CP55940-induced beta-arrestin recruitment at 500 nM preincubated for 30 mins followed by CP55940 addition and measured after 90 to 180 mins by PathHunter assay relative to CP55940; type: cell-based
Cannabinoid receptor 1 [10] = biological target: T1, Cannabinoid receptor 1; test: Positive allosteric modulation of human CB1 receptor expressed in CHOK1 cells assessed as increase in CP55940-induced beta-arrestin recruitment preincubated for 30 mins followed by CP55940 addition and measured after 90 to 180 mins by PathHunter assay relative to CP55940; type: cell-based
Mus musculus [11] = test: Psychoactive effect in C57BL/6J mouse assessed as effect on locomotor activity by measuring change in distance travelled at 40 mg/kg, ip measured after 30 mins; type: ADME, organism-based; settings: in vivo, 0.5 h
Cannabinoid receptor 1 [12] = biological target: T1, Cannabinoid receptor 1; test: Positive allosteric modulation of human Gi/Go-coupled CB1 receptor expressed in CHOK1 cells assessed as increase in CP55940-induced inhibition of forskolin-stimulated cAMP production preincubated for 30 mins followed by CP55940 addition and measured after 30 to 60 mins by Hit-hunter assay relative to CP55940; type: functional, cell-based
Mus musculus [13] = test: Psychoactive effect in C57BL/6J mouse assessed as effect on locomotor activity by measuring change in immobility time at 40 mg/kg, ip measured after 30 mins; type: ADME, organism-based; settings: in vivo, 0.5 h
Mus musculus [14] = test: Psychoactive effect in C57BL/6J mouse assessed as change in immobility time at 40 mg/kg, ip measured after 30 mins by catalepsy bar test; type: ADME, organism-based; settings: in vivo, 0.5 h
Mus musculus [15] = test: Psychoactive effect in C57BL/6J mouse assessed as antinociceptive effect at 40 mg/kg, ip measured after 30 mins by warm water tail withdrawal assay; type: ADME, organism-based; settings: in vivo, 0.5 h
Mus musculus [16] = test: Psychoactive effect in C57BL/6J mouse assessed as hypothermia by measuring change in rectal temperature at 40 mg/kg, ip measured after 30 mins; type: ADME, organism-based; settings: in vivo, 0.5 h
[17] = biological target: Cannabinoid receptor 1 (Mus musculus) (UniProt P47746); test: Positive allosteric modulation of CB1 receptor in mouse brain membranes assessed as increase in [3H]CP55940 binding at 1 uM measured after 60 mins relative to control; type: cell membranes
Mus musculus [18] = test: Enhancement of CP55940-induced antinociceptive activity in C57BL/6J mouse assessed as increase in tail withdrawal latency at 40 mg/kg, ip pretreated for 15 mins followed by CP55940 addition and measured after 30 mins by warm water tail withdrawal assay; type: functional, organism-based
Mus musculus [19] = test: Antiallodynic activity in C57BL/6J mouse model of CCI-induced neuropathic pain assessed as reduction in mechanical sensitivity in ipsilateral paw at 40 mg/kg, ip by Von frey filament test; type: functional, organism-based; settings: TDE = time-dependent effect
Mus musculus [20] = test: Antiallodynic activity in C57BL/6J mouse model of CCI-induced neuropathic pain assessed as reduction in mechanical sensitivity in contralateral paw at 40 mg/kg, ip by Von frey filament test; type: functional, organism-based; settings: TDE = time-dependent effect
Cannabinoid receptor 1 [21] = biological target: T1, Cannabinoid receptor 1; test: Positive allosteric modulation of human CB1 receptor expressed in CHOK1 cells assessed as increase in CP55940-induced beta-arrestin recruitment at 300 nM preincubated for 30 mins followed by CP55940 addition and measured after 90 to 180 mins by PathHunter assay relative to CP55940; type: cell-based
Cannabinoid receptor 1 [22] = biological target: T1, Cannabinoid receptor 1; test: Positive allosteric modulation of human CB1 receptor expressed in CHOK1 cells assessed as increase in CP55940-induced beta-arrestin recruitment at 1000 nM preincubated for 30 mins followed by CP55940 addition and measured after 90 to 180 mins by PathHunter assay relative to CP55940; type: cell-based

Chain of Cannabinoid receptor 1 (Mus musculus) (P47746 whole entry): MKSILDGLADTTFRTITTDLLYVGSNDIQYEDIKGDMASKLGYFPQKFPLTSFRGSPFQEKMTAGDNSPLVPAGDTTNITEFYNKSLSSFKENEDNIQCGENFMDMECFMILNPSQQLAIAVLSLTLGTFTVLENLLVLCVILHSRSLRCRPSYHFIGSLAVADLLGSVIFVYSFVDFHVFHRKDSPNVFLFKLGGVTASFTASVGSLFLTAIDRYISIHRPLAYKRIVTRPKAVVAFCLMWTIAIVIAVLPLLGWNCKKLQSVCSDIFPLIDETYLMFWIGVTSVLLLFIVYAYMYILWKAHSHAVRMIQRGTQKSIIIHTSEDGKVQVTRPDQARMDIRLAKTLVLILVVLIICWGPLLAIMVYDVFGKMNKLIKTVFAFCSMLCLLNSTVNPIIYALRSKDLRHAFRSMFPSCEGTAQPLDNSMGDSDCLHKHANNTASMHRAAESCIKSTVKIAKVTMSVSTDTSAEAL
T1 sequence (P21554 whole entry): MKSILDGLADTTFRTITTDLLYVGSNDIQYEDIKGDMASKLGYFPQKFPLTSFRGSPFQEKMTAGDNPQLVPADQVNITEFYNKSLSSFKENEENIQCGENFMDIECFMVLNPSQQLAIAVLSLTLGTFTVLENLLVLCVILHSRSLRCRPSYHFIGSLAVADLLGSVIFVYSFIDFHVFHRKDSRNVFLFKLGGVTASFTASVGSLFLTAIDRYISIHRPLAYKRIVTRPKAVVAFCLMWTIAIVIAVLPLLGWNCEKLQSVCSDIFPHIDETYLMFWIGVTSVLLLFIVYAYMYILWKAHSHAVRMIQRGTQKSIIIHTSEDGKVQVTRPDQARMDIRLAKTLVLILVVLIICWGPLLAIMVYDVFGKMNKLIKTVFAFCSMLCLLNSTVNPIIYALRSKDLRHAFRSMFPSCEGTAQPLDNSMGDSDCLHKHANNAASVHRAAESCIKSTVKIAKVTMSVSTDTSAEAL

Activity (Cannabinoid receptor 1 [9]) [%]	Compound	pEC50 (Cannabinoid receptor 1 [1])	pEC50 (Cannabinoid receptor 1 [2])	pEC50 (Cannabinoid receptor 1 [6])	Emax (Cannabinoid receptor 1 [7]; read-out: Emax) [%]	pEC50 (Cannabinoid receptor 1 [8])	Emax (Cannabinoid receptor 1 [10]) [%]	Emax (Cannabinoid receptor 1 [12]) [%]	Activity [17] [%]	also measured
	N#Cc1ccc2c([C@@H](CC(F)(F)F)c3cccs3)c(-c3ccccc3)[nH]c2c1	6.44	6.08	7.54	84	7.77				t1/2 [3]: 72.3 min; t1/2 [4]: 34.9 min; t1/2 [5]: 26.5 min
	N#Cc1ccc2c(C(CC(F)(F)F)c3cccs3)c(-c3ccccc3)[nH]c2c1 (racemic)	6.75	6.19							Activity (Mus musculus [18]): Active; Activity (Mus musculus [11]): Non-Toxic; Activity (Mus musculus [19]): Tde; Activity (Mus musculus [20]): Tde; Activity (Mus musculus [13]): Non-Toxic; Activity (Mus musculus [14]): Non-Toxic; Activity (Mus musculus [15]): Non-Toxic; Activity (Mus musculus [16]): Non-Toxic
> 50	Cc1ccc2c(C(C(=O)C(F)(F)F)c3ccccc3)c(-c3ccccc3)[nH]c2c1 (racemic)									Activity (Cannabinoid receptor 1 [21]): 50 to 100%
> 50	Cc1ccc2c(C(CC(F)(F)F)c3ccccc3)c(-c3ccccc3)[nH]c2c1 (racemic)									Activity (Cannabinoid receptor 1 [21]): 50 to 100%
	N#Cc1ccc2c(C(C[N+](=O)[O-])c3cccs3)c(-c3ccccc3)[nH]c2c1 (single isomer, unassigned; (+)) [listing 1 of 2 here]	6.06	< 5.00	6.60	96	6.74				
	N#Cc1ccc2c(C(C[N+](=O)[O-])c3cccs3)c(-c3ccccc3)[nH]c2c1 (single isomer, unassigned; (+)) [listing 2 of 2 here]						51	102	99	Activity (Cannabinoid receptor 1 [22]): > 50%
	N#Cc1ccc2c(C(C[N+](=O)[O-])c3cccs3)c(-c3ccccc3)[nH]c2c1 (single isomer, unassigned; (-)) [listing 1 of 2 here]	6.18	< 5.00	7.34		7.44				Emax (Cannabinoid receptor 1 [7]): 97%
	N#Cc1ccc2c(C(C[N+](=O)[O-])c3cccs3)c(-c3ccccc3)[nH]c2c1 (single isomer, unassigned; (-)) [listing 2 of 2 here]						117	99	108	Activity (Cannabinoid receptor 1 [22]): > 50%

Compound	Activity (Cannabinoid receptor 1 [9]) [%]	pEC50 (Cannabinoid receptor 1 [1])	pEC50 (Cannabinoid receptor 1 [2])	pEC50 (Cannabinoid receptor 1 [6])	Emax (Cannabinoid receptor 1 [7]; read-out: Emax) [%]	pEC50 (Cannabinoid receptor 1 [8])	Emax (Cannabinoid receptor 1 [10]) [%]	Emax (Cannabinoid receptor 1 [12]) [%]	Activity [17] [%]	also measured
Cc1ccc2c(C(C[N+](=O)[O-])c3cccs3)c(-c3ccccc3)[nH]c2c1 (racemic)	> 50	6.55	6.11	7.49	94	7.74	106	98	127	t1/2 [3]: 41.2 min; t1/2 [4]: 6.4 min; t1/2 [5]: 10.4 min; Activity (Mus musculus [11]): Non-Toxic; Activity (Mus musculus [13]): Non-Toxic; Activity (Mus musculus [14]): Non-Toxic; Activity (Mus musculus [15]): Non-Toxic; Activity (Mus musculus [16]): Non-Toxic
